Source: ChEMBL document CHEMBL4619712, “Double-component diazeniumdiolate derivatives as anti-cancer agents” (Bioorg Med Chem, 2020)
Calls of active or inactive are those of the source. No cut-off for these calls is given here.

What was measured:
[1] = test system: CCRF-CEM; test: Induction of apoptosis in human CCRF-CEM cells assessed as necrotic cells at 8 uM after 8 hrs by Annexin V/propidium iodide staining based flow cytometry (reference value: 0.11%); assay type: functional
[2] = target: c-Jun N-terminal kinase, JNK (Homo sapiens) (UniProt P45983+P53779+P45984); test: Activation of JNK in human CCRF-CEM cells assessed as increase in JNK level at 8 uM incubated for 1 to 6 hrs by Western blot analysis; assay type: cell-based
[3] = test system: CCRF-CEM; test: Induction of apoptosis in human CCRF-CEM cells assessed as viable cells at 8 uM after 8 hrs by Annexin V/propidium iodide staining based flow cytometry (reference value: 90.4%); assay type: functional; conditions: read-out: Activity
[4] = test system: CCRF-CEM; test: Induction of apoptosis in human CCRF-CEM cells assessed as early apoptotic cells at 8 uM after 8 hrs by Annexin V/propidium iodide staining based flow cytometry (reference value: 0.87%); assay type: functional
[5] = test system: CCRF-CEM; test: Induction of apoptosis in human CCRF-CEM cells assessed as late apoptotic cells at 8 uM after 8 hrs by Annexin V/propidium iodide staining based flow cytometry (reference value: 8.60%); assay type: functional
[6] = test system: CCRF-CEM; test: Induction of apoptosis in human CCRF-CEM cells assessed as necrotic cells at 8 uM after 24 hrs by Annexin V/propidium iodide staining based flow cytometry (reference value: 0.11%); assay type: functional
[7] = test system: CCRF-CEM; test: Induction of apoptosis in human CCRF-CEM cells assessed as viable cells at 8 uM after 24 hrs by Annexin V/propidium iodide staining based flow cytometry (reference value: 90.4%); assay type: functional; conditions: read-out: Activity
[8] = test system: CCRF-CEM; test: Induction of apoptosis in human CCRF-CEM cells assessed as early apoptotic cells at 8 uM after 24 hrs by Annexin V/propidium iodide staining based flow cytometry (reference value: 0.87%); assay type: functional
[9] = test system: CCRF-CEM; test: Induction of apoptosis in human CCRF-CEM cells assessed as late apoptotic cells at 8 uM after 24 hrs by Annexin V/propidium iodide staining based flow cytometry (reference value: 8.60%); assay type: functional
[10] = test system: CCRF-CEM; test: Induction of apoptosis in human CCRF-CEM cells assessed as necrotic cells at 8 uM after 48 hrs by Annexin V/propidium iodide staining based flow cytometry (reference value: 0.11%); assay type: functional
[11] = test system: CCRF-CEM; test: Induction of apoptosis in human CCRF-CEM cells assessed as viable cells at 8 uM after 48 hrs by Annexin V/propidium iodide staining based flow cytometry (reference value: 90.4%); assay type: functional; conditions: read-out: Activity
[12] = test system: CCRF-CEM; test: Induction of apoptosis in human CCRF-CEM cells assessed as early apoptotic cells at 8 uM after 48 hrs by Annexin V/propidium iodide staining based flow cytometry (reference value: 0.87%); assay type: functional
[13] = test system: CCRF-CEM; test: Induction of apoptosis in human CCRF-CEM cells assessed as late apoptotic cells at 8 uM after 48 hrs by Annexin V/propidium iodide staining based flow cytometry (reference value: 8.60%); assay type: functional
[14] = test system: CCRF-CEM; test: (§1) Induction of apoptosis in human CCRF-CEM cells assessed as necrotic cells at 8 uM after 72 hrs by Annexin V/propidium iodide staining based flow cytometry (reference value: 0.11%); assay type: functional
[15] = test system: CCRF-CEM; test: Induction of apoptosis in human CCRF-CEM cells assessed as decrease in Bcl-2 level at 8 uM by Western blot analysis; assay type: functional, cell-based; conditions: TDE = time-dependent effect
[16] = test system: CCRF-CEM; test: Induction of apoptosis in human CCRF-CEM cells assessed as viable cells at 8 uM after 72 hrs by Annexin V/propidium iodide staining based flow cytometry (reference value: 90.4%); assay type: functional; conditions: read-out: Activity
[17] = test system: CCRF-CEM; test: Induction of apoptosis in human CCRF-CEM cells assessed as early apoptotic cells at 8 uM after 72 hrs by Annexin V/propidium iodide staining based flow cytometry (reference value: 0.87%); assay type: functional
[18] = test system: CCRF-CEM; test: Induction of apoptosis in human CCRF-CEM cells assessed as late apoptotic cells at 8 uM after 72 hrs by Annexin V/propidium iodide staining based flow cytometry (reference value: 8.60%); assay type: functional
[19] = test system: CCRF-CEM; test: Induction of apoptosis in human CCRF-CEM cells assessed as necrotic cells at 2 uM after 72 hrs by Annexin V/propidium iodide staining based flow cytometry (reference value: 0.11%); assay type: functional
[20] = test system: CCRF-CEM; test: Induction of apoptosis in human CCRF-CEM cells assessed as viable cells at 2 uM after 72 hrs by Annexin V/propidium iodide staining based flow cytometry (reference value: 90.4%); assay type: functional; conditions: read-out: Activity
[21] = test system: CCRF-CEM; test: Induction of apoptosis in human CCRF-CEM cells assessed as early apoptotic cells at 2 uM after 72 hrs by Annexin V/propidium iodide staining based flow cytometry (reference value: 0.87%); assay type: functional
[22] = test system: CCRF-CEM; test: Induction of apoptosis in human CCRF-CEM cells assessed as late apoptotic cells at 2 uM after 72 hrs by Annexin V/propidium iodide staining based flow cytometry (reference value: 8.60%); assay type: functional
[23] = test system: CCRF-CEM; test: Induction of apoptosis in human CCRF-CEM cells assessed as necrotic cells at 4 uM after 72 hrs by Annexin V/propidium iodide staining based flow cytometry (reference value: 0.11%); assay type: functional
[24] = test system: CCRF-CEM; test: Induction of apoptosis in human CCRF-CEM cells assessed as viable cells at 4 uM after 72 hrs by Annexin V/propidium iodide staining based flow cytometry (reference value: 90.4%); assay type: functional; conditions: read-out: Activity
[25] = test system: CCRF-CEM; test: Induction of apoptosis in human CCRF-CEM cells assessed as early apoptotic cells at 4 uM after 72 hrs by Annexin V/propidium iodide staining based flow cytometry (reference value: 0.87%); assay type: functional
[26] = test system: CCRF-CEM; test: Induction of apoptosis in human CCRF-CEM cells assessed as late apoptotic cells at 4 uM after 72 hrs by Annexin V/propidium iodide staining based flow cytometry (reference value: 8.60%); assay type: functional
[27] = test system: CCRF-CEM; test: as §1; assay type: functional; remark: listed apart in the source

- Activity [2]: Active
SMILES: O=[N+]([O-])c1ccc(O/N=[N+](\[O-])N2CCC(CN3CCN(/[N+]([O-])=N/Oc4ccc([N+](=O)[O-])cc4[N+](=O)[O-])CC3)CC2)c([N+](=O)[O-])c1
- Activity [1]: 0.38%
- viability at 8 µM [3]: 61.5%
- Activity [4]: 13.8%
- Activity [5]: 24.3%
- Activity [6]: 0.072%
- viability at 8 µM [7]: 65%
- Activity [8]: 7.03%
- Activity [9]: 27.9%
- Activity [10]: 0.058%
- viability at 8 µM [11]: 43.6%
- Activity [12]: 6.51%
- Activity [13]: 49.8%
- Activity [14]: 0.11%
- Activity [15]: Tde
- viability at 8 µM [16]: 42.5%
- Activity [17]: 4.93%
- Activity [18]: 52.5%
- Activity [19]: 0.015%
- viability at 2 µM [20]: 87.5%
- Activity [21]: 3%
- Activity [22]: 9.53%
- Activity [23]: 0.028%
- viability at 4 µM [24]: 77.9%
- Activity [25]: 3.53%
- Activity [26]: 10.6%
- Activity [27]: 0.077%
